Results on one compound are retold here after article PMC9096165 (Frontiers in Pharmacology, 2022).

One series deals with TRPV1. As to the kind of experiment: TRPV1 Western blotting in bladder homogenates. The class given is in vivo, rat. The following applies: preventive: 20 mg kg^−1 + 7 mg kg^−1 twice daily for 7 days; Western blot, CYP rats. The procedure: (§1) Animals pre-treated with the vehicle or a single high oral dose of DF2755A (20 mg kg^−1; 12 h before the first CYP administration) followed by repeated lower doses administration (7 mg kg^−1 twice daily for 7 days) during IC development were deeply anesthetized with isoflurane (4%) and then killed.
(§2) After killing, rat abdomen was opened through a midline incision, and bladder and proximal urethra were exposed. A catheter was inserted into the bladder through the urethra and a loose ligature was placed around the neck of the urinary bladder. Bladder was inflated with saline via the catheter to slightly distend the bladder and ligature was tightened to maintain proper distension. […] One piece (B1) was placed in Eppendorf, then snap-frozen in liquid nitrogen, and stored at −80°C until quantification using ELISA assay. […] For the microscopic observations of bladder inflammation, the following parameters were analyzed: bladder edema in scores (n = 10/group), bladder hemorrhage in scores (n = 10/group), urothelial loss in scores (n = 10/group), and total inflammatory score, which was calculated by adding all the individual lesion scores (n = 10/group).
Protease and phosphatase inhibitors were added to the bladder homogenates extracted. […] The extracted proteins were quantified using BCA assay (Thermo, United States). […]
On the technique in general: Immunoblotting shows a protein as a band on a membrane.

Series [1] concerns CXCR1. Also noted: method as in Lopes et al., 2016. The following applies: ref Lopes et al., 2016; cited from earlier work.
Another series deals with CXCL5. Briefly: CXCL5 ELISA in bladder tissue. The class given is in vivo, rat. The following applies: preventive: 20 mg kg^−1 + 7 mg kg^−1 twice daily for 7 days, CYP rats. How it is done:
as §1
as §2, with “distension. Bladder was then excised cutting above the insertion point of ureters, and therefore the bladder neck was not included into the bladder sample.” for “distension.”, “10/group). […]” for “10/group).”
On the technique in general: An ELISA detects its analyte on a solid surface through an enzyme-linked reagent.

Series [2] deals with CXCR1. As to the kind of experiment: CXCR1 mRNA expression in F11 cells (RT PCR). The class given is cell-based. The following applies: DF2755A 1 µM + CYP 100 nM. The source says:
(§3) For these experiments, cells at 18th passage were used.
(§4) Triplicate samples were run for each gene.

A further series concerns CXCL1. As to the kind of experiment: CXCL1 mRNA expression in F11 cells (RT PCR). Format: cell-based. The following applies: DF2755A 1 µM + CYP 100 nM.
Text: as §3, §4

The subject of the next series is CXCR2. Briefly: CXCR2 mRNA expression in F11 cells (RT PCR). The class given is cell-based. The following applies: DF2755A 1 µM + CYP 100 nM.
Text: as §3, §4

The next series has as its system CXCL1/KC. As to the kind of experiment: CXCL1 ELISA in bladder tissue. Format: in vivo, rat. The following applies: preventive: 20 mg kg^−1 + 7 mg kg^−1 twice daily for 7 days, CYP rats. The procedure:
as §1
as §2, with “distension. Bladder was then excised cutting above the insertion point of ureters, and therefore the bladder neck was not included into the bladder sample.” for “distension.”, “10/group). […]” for “10/group).”

In general, IC50 refers to the concentration needed to halve the response being measured. As to `C[C@H](C(=O)[O-])c1ccc(Nc2nc(C(F)(F)F)cs2)cc1.[Na+]` [DF2755A, sodium (2S)-2-(4-{[4-(trifluoromethyl)-1,3-thiazol-2-yl]amino}phenyl)propanoate], the “TRPV1 bladder expression versus vehicle-treated animals” value in the series with TRPV1 was “reduced”. Also, in the series on CXCR1 [1], the IC50 is 4.2 nM. Besides, the “bladder tissue expression of CXCL5 versus vehicle-treated rats” value in the series on CXCL5 is “strongly inhibited”. In the series on CXCR1 [2], the “CXCR1 mRNA expression in CYP-exposed cells” value was “restored the mRNA expression of all the targets to control values”. The “CXCL1 mRNA expression in CYP-exposed cells” value with CXCL1 was “restored the mRNA expression of all the targets to control values”. In addition, in the series with CXCR2, the “CXCR2 mRNA expression in CYP-exposed cells” value is “restored the mRNA expression of all the targets to control values”. Besides, in the series on CXCL1/KC, the “bladder tissue expression of CXCL1/KC versus vehicle-treated rats” value is “strongly inhibited”.
